According to a compilation of properties of binary mixtures (doi:10.1016/j.molliq.2012.10.026):

Assay: xn = mol fraction of the nth substance listed
Conditions: 101 kPa, x1 = 0.5

O=C1CCCCCN1 + CCCC[N+](CCCC)(CCCC)CCCC.[Cl-]
Conditions	electrical conductivity [S/m]
293.15 K	0.0409
295.65 K	0.0459
298.15 K	0.0554
300.65 K	0.0726
303.15 K	0.0934
305.65 K	0.116
308.15 K	0.142
310.65 K	0.172
318.15 K	0.31
320.65 K	0.368
323.15 K	0.431
325.65 K	0.49
330.65 K	0.61
333.15 K	0.707
